Measured values taken from patent US8168667B2 (Galapagos NV, priority 2006, dated 2012).
Read-outs that look alike come from different tables or passages of the source.

Legend:
[1] = system: castrated immature young rats; test: Adapted model of Hershberger's test (levator ani and ventral prostate weight); assay type: in vivo, Sprague Dawley rats; settings: Rattus norvegicus, po, 96 h
Method: The selective modulating activity of the androgen receptor was tested in a model of castrated immature young rats. This model, which is widely recognised for evaluating the anabolic effects of androgen compounds on the muscles and on the genitalia, has been described by Hershberger et al. 1953 Proc. Soc. Expt. Biol. Med. 83:175.
The method is based on the measurement of the well-known effects of androgens on the growth of the muscles and the accessory male sex organs in animals, and also in men. The consequences of castration appear in the form of a rapid involution and atrophy of the prostate and the seminal vesicles and of the anus-lifting muscle (levator ani). This effect may be completely compensated by an exogeneous administration of androgen, in particular of testosterone. The model is thus used to determine the capacity of the tested molecules to maintain the weight of the accessory sex and muscle organs in immature castrated rats, and therefore their androgenic efficacy.
Immature young Sprague Dawley rats (4 to 5 weeks old) weighing approximately 140-160 g (Charles River, Les Oncins, FRANCE) were distributed randomly in various groups and were kept in an environment at 22±2° C. with an alternating day/night cycle of 12 hours and ad libitum access to food and drink.
On day 0, that is, seven days before commencement of the first treatment, the rats were weighed individually then anaesthetised with an intraperitoneal dose of Ketamine/xylazine (85/15 mg/kg, approximately 2 ml/kg). Each animal was then placed on a sterile field and the abdomen and the scrotum were disinfected with Betadine and 70% alcohol. In the case of the orchidectomised control animals (ORX), the testicles were removed via an incision in the middle of the scrotum. A sterile suture was then made to ligature the supra-testicular portion of the tissue prior to surgical section of each testicle. The groups of animals to be treated by the tested compounds were operated on in an identical manner. In the case of the intact control animals (SHAM), the testicles were similarly extracted and reintroduced delicately to their original location. The site of surgical intervention was then sutured using sterile suture thread, and the site was disinfected again by application of Betadine. Each animal was then kept under a sterile pad until it awoke, before being returned to its cage. The animals were kept in an environment at 22±2° C. with an alternating day/night cycle of 12 hours and ad libitum access to food and drink. The animals were treated with the molecules to be tested from post-surgery day 7 and until day 10 preceding sacrifice (day 11).
The rats were split into groups and treated daily from day 7 to day 10 under the conditions defined below: • 1. SHAM control group: Vehicle (0.5% aqueous methyl cellulose) administered per os. • 2. ORX control group: Vehicle (0.5% aqueous methyl cellulose) administered per os. • 3. Treated ORX group: The tested compounds were administered individually per os in suspension in the vehicle described above, in a dose of 30 mg/kg.
After treatment for 4 successive days, the animals were decapitated using a guillotine. The levator ani and the ventral prostate were removed and weighed individually. For comparing inter-experimental data, the weight of each organ was standardised and expressed in milligrammes per 100 g of the weight of the animal (W). For each organ, the average of the standardised weights of the ORX control group was fixed by definition at 0% and the average of the standardised weights of the SHAM control group was fixed by definition at 100%. The efficacy of each product was expressed as a percentage and calculated using the following formula: (Wtreated−WORX)/(WSHAM−WORX)×100 A subsequent ANOVA test was used for statistical analysis to identify the differences between groups.

[2] = target: T1, human androgen receptor (hAR) (Homo sapiens, UniProt P10275); test: Functional response test: hAR transactivation (luciferase reporter) in HALP2 cells; assay type: cell-based; settings: for EC50: agonism, HALP2 cells (HeLa, hAR + ARE-luciferase), 20 hours at 37° C.
T1 sequence (P10275 1-920): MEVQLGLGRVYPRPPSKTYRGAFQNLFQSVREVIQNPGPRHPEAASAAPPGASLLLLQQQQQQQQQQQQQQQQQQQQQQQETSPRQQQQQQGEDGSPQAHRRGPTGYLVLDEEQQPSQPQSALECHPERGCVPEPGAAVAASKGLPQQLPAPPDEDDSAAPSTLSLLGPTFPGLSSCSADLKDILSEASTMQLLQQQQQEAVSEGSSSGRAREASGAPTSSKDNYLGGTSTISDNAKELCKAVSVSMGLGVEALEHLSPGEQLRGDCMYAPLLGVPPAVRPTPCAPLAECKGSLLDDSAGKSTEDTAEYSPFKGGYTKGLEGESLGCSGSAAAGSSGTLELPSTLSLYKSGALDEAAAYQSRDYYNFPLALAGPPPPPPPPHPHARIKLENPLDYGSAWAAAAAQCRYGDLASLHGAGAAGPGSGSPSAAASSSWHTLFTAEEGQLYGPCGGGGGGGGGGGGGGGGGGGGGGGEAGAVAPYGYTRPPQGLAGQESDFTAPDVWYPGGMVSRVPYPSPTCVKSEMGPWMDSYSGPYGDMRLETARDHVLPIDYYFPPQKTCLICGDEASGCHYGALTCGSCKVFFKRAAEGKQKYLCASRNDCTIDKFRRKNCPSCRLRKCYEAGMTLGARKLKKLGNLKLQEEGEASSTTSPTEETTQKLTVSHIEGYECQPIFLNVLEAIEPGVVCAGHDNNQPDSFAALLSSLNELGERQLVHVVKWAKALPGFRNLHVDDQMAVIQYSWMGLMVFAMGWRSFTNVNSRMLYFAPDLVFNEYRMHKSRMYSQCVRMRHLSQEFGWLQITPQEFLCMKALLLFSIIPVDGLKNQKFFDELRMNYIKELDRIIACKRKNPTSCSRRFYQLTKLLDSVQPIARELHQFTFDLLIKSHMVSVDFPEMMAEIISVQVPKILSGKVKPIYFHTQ
Method in brief: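 HALP2 cells are HeLa cells stably transfected with CMV-driven hAR and a probasin ARE-luciferase reporter. They were seeded 24 h ahead, then exposed to compounds for 20 hours at 37° C in phenol red-free DMEM with 5% desteroided serum. Luciferase luminescence was measured after lysis; for antagonist mode, compounds were tested against increasing DHT concentrations.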

[3] = read-out: anabolic protection efficacy with regard to levator ani
[4] = read-out: androgenic efficacy with regard to the prostate
[5] = antagonism, concentration which increases the EC50 of the DHT by a factor of 2, Schild regression, HALP2 cells

SMILES | KSchild (nM) potency [2] [nM] | melting point [°C] | also measured
CN1C(=O)N(c2ccc(C#N)c(C(F)(F)F)c2)C(=O)C1(CO)c1ccc(O)cc1 (stereo not shown) [Example 176, 4-[2,5-dioxo-4-hydroxymethyl-4-(4-hydroxyphenyl)-3-methyl-imidazolidin-1-yl]-2-trifluoromethylbenzonitrile] | 1.34 |  | inhibition in vivo at 30 mg/kg [1, 3]: 50 to 140%; inhibition in vivo at 30 mg/kg [1, 4]: 5 to 70%
COc1cc(N2C(=O)N(C)C(C)(c3ccc(O)cc3)C2=O)ccc1C#N (stereo not shown) [Example 9, 4-[3,4-dimethyl-2,5-dioxo-4-(4-hydroxyphenyl)imidazolidin-1-yl]-2-methoxybenzonitrile] | 2.1 |  | inhibition in vivo at 30 mg/kg [1, 3]: 50 to 140%; inhibition in vivo at 30 mg/kg [1, 4]: 5 to 70%
CN1C(=O)N(c2ccc(Cl)c(Cl)c2)C(=O)C1(C)c1ccc(O)cc1 (stereo not shown) [Example 25, 1-(3,4-dichlorophenyl)-3,4-dimethyl-4-(4-hydroxyphenyl)imidazolidine-2,5-dione] | 10.9 | 184 | 
CCN1C(=O)N(c2ccc(C#N)c(C(F)(F)F)c2)C(=O)C1(C)c1ccc(O)cc1 (stereo not shown) [Example 224, 4-[2,5-dioxo-3-ethyl-4-(4-hydroxyphenyl)-4-methylimidazolidin-1-yl]-2-trifluoromethylbenzonitrile] |  | 165 | KSchild (nM) potency [2, 5]: 2 nM
COCN1C(=O)N(c2ccc(C#N)c(OC)c2)C(=O)C1(C)c1ccc(O)cc1 (stereo not shown) [Example 223.1, 4-[4-(4-hydroxyphenyl)-3-methoxymethyl-4-methyl-2,5-dioxoimidazolidin-1-yl]-2-methoxybenzonitrile] | 4 | 141 | 
COCN1C(=O)N(c2ccc(C#N)c(C(F)(F)F)c2)C(=O)C1(C)c1ccc(O)cc1 (stereo not shown) [Example 222, 4-[4-(4-hydroxyphenyl)-3-methoxymethyl-4-methyl-2,5-dioxoimidazolidin-1-yl]-2-trifluoromethylbenzonitrile] |  |  | inhibition in vivo at 30 mg/kg [1, 3]: 50 to 140%; inhibition in vivo at 30 mg/kg [1, 4]: 5 to 70%
CC1(c2ccc(O)cc2)C(=O)N(c2ccc(C#N)c(C(F)(F)F)c2)C(=O)N1CCF (stereo not shown) [Example 226, 4-[2,5-dioxo-3-(2-fluoroethyl)-4-(4-hydroxyphenyl)-4-methylimidazolidin-1-yl]-2-trifluoromethylbenzonitrile] | 2.45 | 157 | 
CN1C(=O)N(c2ccc(C#N)c(C(F)(F)F)c2)C(=O)C1(C)c1ccc(O)c(Cl)c1 (stereo not shown) [Example 173, 4-[4-(3-chloro-4-hydroxyphenyl)-3,4-dimethyl-2,5-dioxoimidazolidin-1-yl]-2-trifluoromethylbenzonitrile] | 3 | 161.1 | 
CCOCN1C(=O)N(c2ccc(C#N)c(C(F)(F)F)c2)C(=O)C1(C)c1ccc(O)cc1 (stereo not shown) [Example 221, 4-[3-(ethoxymethyl)-4-(4-hydroxyphenyl)-4-methyl-2,5-dioxoimidazolidin-1-yl]-2-trifluoromethylbenzonitrile] | 5.66 | 143 | 
CN1C(=O)N(c2ccc(C#N)c(C(F)(F)F)c2)C(=O)C1c1ccc(O)cc1 (stereo not shown) [Example 2, 4-[2,5-dioxo-4-(4-hydroxyphenyl)-3-methyl-imidazolidin-1-yl]-2-trifluoromethylbenzonitrile] | 9.65 | 157.4 | 
CN1C(=O)N(c2ccc(C#N)c(C(F)(F)F)c2)C(=O)C1(CF)c1ccc(O)cc1 (stereo not shown) [Example 177, 4-[2,5-dioxo-4-fluoromethyl-4-(4-hydroxyphenyl)-3-methylimidazolidin-1-yl]-2-trifluoromethylbenzonitrile] | 0.72 |  | inhibition in vivo at 30 mg/kg [1, 3]: 50 to 140%; inhibition in vivo at 30 mg/kg [1, 4]: 5 to 70%
CN1C(=O)N(c2ccc(Cl)c(Cl)c2)C(=O)C1(CF)c1ccc(O)cc1 (stereo not shown) [Example 184, 1-(3,4-dichlorophenyl)-4-fluoromethyl-4-(4-hydroxyphenyl)-3-methylimidazolidine-2,5-dione] |  | 167.2 | EC50 [2]: 4.9 nM; KSchild (nM) potency [2, 5]: 2.8 nM
C#CCN1C(=S)N(c2ccc(C#N)c(C(F)(F)F)c2)C(=O)C1(C)c1ccc(O)cc1 (stereo not shown) [Example 43, 4-[4-(4-hydroxyphenyl)-4-methyl-5-oxo-3-(2-propynyl)-2-thioxoimidazolidin-1-yl]-2-trifluoromethylbenzonitrile] | 0.49 | 169 | 
CCCN1C(=O)N(c2ccc(C#N)c(C(F)(F)F)c2)C(=O)C1(C)c1ccc(O)cc1 (stereo not shown) [Example 225, 4-[2,5-dioxo-4-(4-hydroxyphenyl)-4-methyl-3-propylimidazolidin-1-yl]-2-trifluoromethylbenzonitrile] | 2.83 | 125 | 
C#CCN1C(=O)N(c2ccc(Cl)c(C(F)(F)F)c2)C(=O)C1c1ccc(O)cc1 (stereo not shown) [Example 68] | 24.49 |  | 
C=CCN1C(=O)N(c2ccc(F)c(F)c2)C(=O)C1c1ccc(O)cc1 (stereo not shown) [Example 14, 1-(3,4-difluorophenyl)-4-(4-hydroxyphenyl)-3-(2-propenyl)imidazolidine-2,5-dione] |  |  | EC50 [2]: 30 nM; KSchild (nM) potency [2, 5]: 30 nM
C#CCN1C(=O)N(c2ccc(C#N)c(C(F)(F)F)c2)C(=O)[C@@]1(C)c1ccc(O)cc1 [Example 156.1, (R)-4-[2,5-dioxo-4-(4-hydroxyphenyl)-4-methyl-3-(2-propynyl)imidazolidin-1-yl]-2-trifluoromethylbenzonitrile] | 6 |  | 
CC1(c2ccc(O)cc2)C(=O)N(c2ccc(C#N)c(C(F)(F)F)c2)C(=O)N1CCCO (stereo not shown) [Example 150] | 60 |  | 
CN1C(=O)N(c2ccc(F)c(F)c2)C(=O)C1c1ccc(O)cc1 (stereo not shown) [Example 46] |  |  | EC50 [2]: 77.5 nM; KSchild (nM) potency [2, 5]: 77.46 nM
CCOCCCN1C(=O)N(c2ccc([N+](=O)[O-])c(C(F)(F)F)c2)C(=O)C1c1ccc(O)cc1 (stereo not shown) [Example 83] | 565.69 |  | 
